{"source": "patent US9808434B2", "about": "“Compound for treating cancer and diabetes” (CITY OF HOPE, priority 2011, dated 2017)", "key": {"[1]": {"tested_on": "HAVSMC, NHDFs, melanocytes", "assay": "MTT assay, normal cells", "type": "cell-based, human", "conditions": "24 h and 48 h", "description": "(§1) Cell density measurements were performed using a hemocytometer to count reproductive cells resistant to staining with trypan blue. Approximately 20,000 cells were plated into each well of 96-well flat-bottomed micro-titer plates. After 12 h or 24 h incubation at 37° C., medium containing either COH-SR4 (ranging 0-200 μM) or elesclomol (ranging 0-20 μM) were added to the cells. After 24 h, 48 h or 96 h incubation, 20 μL of 5 mg/mL MTT were introduced to each well and incubated for 2 h. The plates were centrifuged and medium was decanted. Cells were subsequently dissolved in 100 μl DMSO with gentle shaking for 2 h at room temperature, followed by measurement of OD570 (91)."}, "[2]": {"tested_on": "isolated mouse liver mitochondria", "assay": "Oxygen consumption rate in isolated liver mitochondria", "conditions": "increasing concentrations", "quoted_text": "Mitochondria were isolated from the livers of 10 week old male C57BL/6 mice. Mice were euthanized by CO2 inhalation followed by cervical dislocation. Livers were removed, minced with scissors, and immediately placed in ˜10 volumes of ice-cold mitochondria isolation medium (250 mM sucrose, 10 mM Tris-HCl, 1 mM EGTA, 1% fatty acid/endotoxin-free BSA, pH 7.4). The presence of BSA in the medium allowed the endogenous free fatty acids to be chelated from the homogenate suspension. The tissues were homogenized using 25-30 strokes in Potter-Elvehjem tissue grinder. Following centrifugation at 800×g for 10 min at 4° C., the fats/lipids were carefully aspirated, and the remaining supernatant was filtered through sterile 0.40 micron nylon mesh membrane and centrifuged at 8,000×g for 10 min at 4° C. […] The mitochondrial protein concentration was determined by the DC Protein Assay kit (Bio-Rad, Hercules, Calif.) with BSA as a standard. […]\nIsolated mouse liver mitochondria (2 μg/well or 5 μg/well) were seeded on Seahorse 96-well plate, and respiration (OCR) was measured on mitochondria respiring either on pyruvate (10 mM) and malate (2 mM) or succinate (10 mM) and rotenone (2 μM) using a Seahorse 96 Flux Analyzers according to Rogers et al (90)."}, "[3]": {"tested_on": "H358 cells", "assay": "MTT assay, H358", "type": "cell-based", "conditions": "Homo sapiens, NCI-H358, 48 h", "description": "as §1\nThe effect of COH-SR4 was first examined in a NCI panel of cancer cell lines, the results of which indicated good activity of COH-SR4 towards lung cancer (FIG. 78A). […] Values are presented as mean±SD from two separate determinations with eight replicates each (n=16) (FIG. 78B). […] Standard colony-forming assay was performed and the colonies were counted using Innotech Alpha Imager HP. […] TUNEL assay was performed using Promega fluorescence detection kit and examined using Zeiss LSM 510 META laser-scanning fluorescence microscope with filters 520 and 620 nm. […]"}, "[4]": {"tested_on": "H520", "assay": "Colony formation assay, H520", "type": "cell-based, human", "conditions": "1.5 μM", "description": "Cell survival was evaluated using a standard colony-forming assay. In total, 1×10^5 cells/mL were incubated with COH-SR4 (1.5 μM or 5 μM) or elesclomol (5 μM) for 24 h, and aliquots of 50 or 100 μL were added to 60 mm size petri dishes, containing 4 mL culture medium. After 7 or 10 days, adherent colonies were fixed, stained with 0.5% methylene blue for 30 min and colonies were counted using the Innotech Alpha Imager HP (91).\nThe effect of COH-SR4 was first examined in a NCI panel of cancer cell lines, the results of which indicated good activity of COH-SR4 towards lung cancer (FIG. 78A). […] Values are presented as mean±SD from two separate determinations with eight replicates each (n=16) (FIG. 78B). The COH-SR4 treatment exerted a significant inhibitory effect on the survival of lung cancer cells [IC50: H1417 cells-1.2±0.2 μM, H1618 cells-1.5±0.2 μM, H358 cells-2.1±0.2 μM and H520 cells-2.4±0.3 μM]. […] Following initial screening for the anticancer activity of COH-SR4, the effect of COH-SR4 on clonogenic potential was studied. Standard colony-forming assay was performed and the colonies were counted using Innotech Alpha Imager HP. […] The effect of COH-SR4 on induction of apoptosis was further investigated. […] TUNEL assay was performed using Promega fluorescence detection kit and examined using Zeiss LSM 510 META laser-scanning fluorescence microscope with filters 520 and 620 nm. […]"}, "[5]": {"assay": "COH-SR4 in mice serum, HPLC analysis", "type": "in vivo, mouse", "conditions": "4 mg/kg oral", "description": "Hsd: Athymic nude nu/nu mice obtained from Harlan, Indianapolis, Ind. were used for the oral administration of COH-SR4 on lung cancer progression in in-vivo xenograft model. Twelve 10-weeks-old mice were divided into two groups of 6 animals (treated with corn oil (vehicle), and COH-SR4 4 mg/kg b.w.). All animals were subcutaneously injected with 2×10^6 H358 cells in 100 μL of PBS into one flank of each mouse. Treatment was started 10 days after the implantation of cells to see palpable tumor growth. Treatment consisted of 0.1 mg (4 mg/kg b.w.) of COH-SR4/mice in 200 μL corn oil by oral gavage alternate day. Control groups were treated with 200 μL corn oil by oral gavage alternate day. Animals were examined daily for signs of tumor growth and body weights were recorded. […] Tumors were measured in two dimensions using calipers. […] (FIG. 81B). […] Photographs of animals were taken at day 1, day 10, day 14, day 18, day 30 and day 60 after subcutaneous injection, are shown for all groups (FIG. 81D). The absorption of orally administered COH-SR4 in mice was assessed."}, "[6]": {"assay": "Metabolic effects in Type 2 diabetes db/db mice", "type": "in vivo, mouse", "conditions": "five weeks", "description": "All animal experiments were carried out in accordance with the protocols approved by the Institutional Animal Care and Use Committee of the City of Hope. Nine-week old male C57BL/6J mice fed on high fat diet (HFD, 60% fat) and 10-week old db/db mice were given COH-SR4 (5 mg/kg B.W.) or vehicle (corn oil) via oral gavage every other day for six and five weeks, respectively. Oral glucose tolerance test was performed on animals after an overnight fast. All other metabolic parameters were measured at the end of study. Liver samples were stained with H&E and Oil Red O.\nAll data represented are mean±SEM. *P<0.05, **P<0.01 vs. LFD or db/+; ^#P<0.05, ^##P<0.01 vs. HFD or db/db. n=12 animals per group for HFD mice. LFD=low fat diet (lean), HFD=high fat diet (obese). n=8 animals per group for db/db mice.\nRepresentative mice in each treatment group (db/+, db/db, db/db treated with COH-SR4 (db/db+SR4)) depicted gross images of whole body shape (top) and abdominal fat (bottom) (FIG. 85H)."}}}
{"smiles": "O=C(Nc1cc(Cl)cc(Cl)c1)Nc1cc(Cl)cc(Cl)c1", "note": "[COH-SR4, 1,3-bis(3,5-dichlorophenyl) urea]", "values": [{"measurement": "cytotoxicity in normal cells", "setting": "[1]", "result": "did not cause any significant cytotoxicity"}, {"measurement": "OCR of mitochondria respiring on pyruvate and malate or succinate-rotenone", "setting": "[2]", "result": "dose-dependently increased OCR of mitochondria"}, {"measurement": "IC50", "setting": "[3]", "result": "2100 ± 200", "unit": "nM"}, {"measurement": "colony formation", "setting": "[4]", "result": "54±5", "unit": "%"}, {"measurement": "serum concentration", "setting": "[5]", "result": "1100 ± 300", "unit": "nM"}, {"measurement": "body weight", "setting": "[6]; 5 mg/kg oral every other day", "result": "decreased body weight"}, {"measurement": "HbA1c levels", "setting": "[6]", "result": "lower HbA1c levels"}, {"measurement": "fasting blood glucose", "setting": "[6]", "result": "improved fasting blood glucose"}, {"measurement": "glucose tolerance", "setting": "[6]", "result": "improved"}, {"measurement": "hepatic steatosis", "setting": "[6]", "result": "reduced"}, {"measurement": "hepatic triglycerides", "setting": "[6]", "result": "reduced hepatic triglycerides"}]}
